This assay is described as follows: SOD-like activity (superoxide scavenging activity) by ESR spin trap method, hypoxanthine-xanthine oxidase system with DMPO. Format: biochemical. The settings on record: for SOD-like activity after emulsification: after emulsification (Tween-80 or other emulsifier), figures in parentheses; for SOD-like activity (superoxide scavenging activity): not emulsified, extracted with untreated 0.1 M phosphate buffer. An excerpt: This superoxide scavenging activity will be described in further detail below. Superoxides (O2') are a type of active oxygen that are produced by neutrophils and macrophages and protect the body from impurities, but also are the cause of pulmonary emphysema, cataracts, arteriosclerosis, psoriasis, and the like. These superoxides are, therefore, a double-edged sword. The enzyme activity of superoxide dismutase (SOD) and superoxide scavenging activity (SOSA or SOD-like activity) are examples of the ability of food products to eliminate O2'. The former is an enzyme and is therefore broken down by digestive enzymes and goes virtually unabsorbed in vivo when taken orally. Consequently, the latter is promising for food products. […] ESR is a method for measuring SOD-like activity and assessing the ability of […] to scavenge O2'. […] This method is also called the spin trap method. In accordance with preparation by this spin trap method, only the water-soluble components are extracted in order to extract the component with SOD-like activity contained in a sample with 0.1 M phosphate buffer. […] Consequently, measuring superoxide […] activity with the isoflavone pre-emulsified in a small amount of oil or fat was contemplated.

Results on 2 compounds are retold here after patent publication US20060052440A1, “Medicinal composition for treating sudden deafness” (Nichimo Co., Ltd., priority 2002, published 2006).

Structures are written as SMILES.

Turning to `O=c1c(-c2ccc(O)cc2)coc2cc(O)ccc12` [Daidzein, daidzein], the “SOD-like activity after emulsification” value is recorded as “(300 or units/g” and the “SOD-like activity (superoxide scavenging activity)” value is 300 or less units/g.

For the compound `O=c1c(-c2ccc(O)cc2)coc2cc(O)cc(O)c12` [Genistein, genistein], the “SOD-like activity after emulsification” value was “(300 or units/g” and the “SOD-like activity (superoxide scavenging activity)” value is listed as 300 or less units/g.
